One assay relates to isolated rat adipocytes. Kind of assay: Lipogenesis assay: conversion of [3-3H] glucose into lipids. In kind it is cell-based. To be noted: FIG. 3. The source says: In this Example the materials used and the analytical procedures followed are those found in Kitagawa et al., Biochemistry, 23: 1405-1413 (1984). ^125 I-insulin for receptor binding studies and [3-^3 H] glucose for lipogenesis were obtained from DuPont NEN Research Products. Cellulose acetate membrane filters, 0.2 μm pore size, were products of Sartorius. Glass-fiber filters, Type GFC, were from Whatman. Collagenase, Type II crude, was obtained from Worthington. The scintillation fluids Filtron-X®, Hydrofluor® and Soluscint-O® were products of National Diagnostics. Crystalline bovine insulin was from Sigma, and fatty-acid free bovine serum albumin from Boehringer - Mannheim Biochemicals.
The data points represent the mean triplicate determinations in representative assays performed four times.

Assay [1] deals with FAO cells (well differentiated hepatoma cell line). Kind of assay: Inhibition of gluconeogenesis assay (glucose secretion into the medium). Format: cell-based. To be noted: FIG. 4. The protocol:
This assay was carried out on confluent monolayers of a well differentiated hepatoma cell line (Lauris et al. Endocrinology 118:2519-2524 (1986)) in which glucose production was monitored with a commercial glucose oxidase kit (Sigma kit no. 510-A, Sigma Technical Bulletin 510, 1983). Inhibition of glucose secretion into the medium was determined as a function of the concentration of insulin or insulin analogue, and the relative potency of the analogue was defined as the ratio of the concentration of insulin to analogue required to produce half-maximal inhibition of glucose production. The cell culture and glucose production was carried out as described by Lauris et al., supra.
The potency of the synthetic insulin in inhibiting gluconeogenesis is calculated to be about 90% relative to the natural hormone.

Turning to [Trp^14 -A] insulin, in the assay on isolated rat adipocytes, the “Concentration of agonist producing half-maximal stimulation of lipogenesis compared with bovine insulin” value was “about twice the concentration” and the “Maximum stimulation of lipogenesis compared with bovine insulin” value is recorded as “same maximum stimulation”. Besides, in assay [1], the “Concentration of agonist producing half-maximal inhibition of gluconeogenesis compared with insulin” value is recorded as “approximately the same concentration” and the “Maximum inhibition of gluconeogenesis compared with insulin” value is “same maximum inhibition”.

These data come from US5208217A, “Hepatospecific insulin analogues” (Mount Sinai School of Medicine of The City University of …, priority 1991, dated 1993).
